# Data reported in patent US8268893B2, “Use of dapsone as a neuroprotector in cerebral infarction” (Universidad Autonoma Metropolitana, priority 2003, dated 2012).
# Values joined by “and” are separate entries in the source; they are usually repeats but may differ in a detail not shown here. Equal values may be shown once.
# Legend:
# [1] = test system: brain stroke model produced by occlusion of the middle cerebral artery; assay: Neurological functional scale in rats after permanent occlusion of the middle cerebral artery; type: in vivo, rat
# Method: Dapsone was evaluated as neuroprotector in the brain stroke model produced by occlusion of the middle cerebral artery. The drug was suspended in a suitable vehicle.
# 3 groups of 5 animals each were treated with: Saline isotonic solution (551, control group), Dapsone (12.5 mg/kg) and Dapsone (9.375 mg/kg) injected by intraperitoneal route, 30 minutes after the occlusion of the middle cerebral artery, as described below.
# The permanent selective brain ischemic was produced in the animals through introducing a suture thread intraluminal through the carotid artery. All animals received continuous anesthesia during the surgical procedure with halotane 1.5%, through a face mask. […]
# During the 96 hours after the ischemic procedure, the animals were neurologically evaluated using a functional scale, each 24 hours.
# For the neurological scale and percentage of the lesion volume in rats, the statistical significance was determined with the Kruskal-Wallis test, followed by the U test of MannWhitney.
# The results of the neurological evaluation in rats are shown in FIG. 1, where the scores of the neurological test as a function of time can be observed, after producing the stroke in the rats. The results are expressed as the average of 4 independent experiments. […]
# [2] = test system: brain stroke model produced by occlusion of the middle cerebral artery; assay: Ischemic lesion volume (histology) in rats 96 hours after occlusion of the middle cerebral artery; type: in vivo, rat; conditions: for reduction of ischemic lesion volume in comparison with the control group: 96 hours
# Method: Dapsone was evaluated as neuroprotector in the brain stroke model produced by occlusion of the middle cerebral artery. The drug was suspended in a suitable vehicle. 3 groups of 5 animals each were treated with: Saline isotonic solution (551, control group), Dapsone (12.5 mg/kg) and Dapsone (9.375 mg/kg) injected by intraperitoneal route, 30 minutes after the occlusion of the middle cerebral artery, as described below. The permanent selective brain ischemic was produced in the animals through introducing a suture thread intraluminal through the carotid artery. All animals received continuous anesthesia during the surgical procedure with halotane 1.5%, through a face mask. Animals were placed in dorsal decubitus position, fixed and shaved in the anterior cervical region to make an incision in the middle line from the sternum towards the region of the sternohiodeous muscle, to its side rim, identifying in this side the middle rim of the sternocleidomastoideus and the superficial cervical aponeurosis in its deep leaf, same that was cut to leave exposed the common carotid blow and inside the caudal belly of the digastric. A cutting dissection of the common carotid was performed, until the hypoglose loop. The carotid bifurcation was identified, external carotid and its occipital and thyroid branches, the two latter were joined with mono-filament of 8-0 as well as with electrocoagulation for its later cut. The internal carotid was dissected in a length of approximately 5 mm and at that time the pterigo-palatine artery was identified. A microchip was placed or it was joined with mono-filament 6-0. Once the flux was stopped through these artery affluent, the mono-filament nylon 3-0 was introduced towards the internal carotid artery, through the stub of the external carotid artery, for a length of 17 mm as of the bifurcation. The wound was closed, and the animal was left to recover, with water and food ad libitum. In all cases, ischemia was verified by macroscopic observation and for the position of the thread. At the end of the 96 hours of observation, animals were sacrificed with an overdose of sodium pentobarbital by intraperitoneal route, and their brains were extracted by craniectomy. Once extracted, the brains were fixed with anhydrous alcohol during two weeks. The usual histological process was performed, as well as sections of 10 μm, storing a section each 200 μm. […] The area of each tissue section was determined using a digital analysis system and a photographic amplifier. […] Each section was assessed for 3 determinations: A) total area, including ventriculus B) Ventricular area C) Ischemic area, according to the pathologist's review. […] The results are expressed as the average+/-standard error of 4 independent experiments.
# [3] = test system: patients with acute brain stroke for thrombo-embolism; assay: Randomized, double-blind, placebo-controlled clinical trial in patients with acute brain stroke, NIH scale; type: in vivo, human
# Method: This study evaluated the neuroprotector effect of dapsone in patients that, having suffered an acute brain stroke for thrombo-embolism, were admitted to the Emergency Services of the National Institute of Neurology and Neurosurgery “Manuel Velasco Suarez”. Dapsone was administered in a single dose of 200 mg in suspension, orally. […] Dapsone was administered blinded to 15 patients, while other 15 patients were administered with an anti-acid suspension, as a placebo medication. Patients were randomly allocated into one of the treatment groups, using random numbers, generated by a pocket calculator. Both medications were administered during the first twelve hours after the brain stroke. As result of these procedures, the clinical trial was randomized, double-blind and placebo-controlled. The evaluation of clinical signs and symptoms was performed in blind by an expert neurologist, with the NIH scale, that quantifies the intensity of disabilities caused by the brain stroke. Said scale was applied at the time the patient entered the study (day zero) and 2, 6 and 30 days after the brain stroke. A stroke is considered as moderately severe or severe, when the NIH rated a value higher than seven. The NIH scale results in the two groups of patients were statistically analyzed with analysis of variance analysis (ANOVA) using as co-variables the NIH scale at the admittance day (day zero), as well as the gender, age, blood pressure and other important clinical variables for the patient's performance. The results in patients with acute thrombo-embolic brain stroke, are shown in FIG. 3, which presents the scores of the neurological scale (NIH) as a function of time (in days) after administering dapsone or the placebo. The results are expressed as the average of 15 patients per group +/−the standard error.
# [4] = Stability of dapsone oral suspension; type: physicochemical; conditions: refrigeration at 4° C.
structure (smiles),measurement,setting,value
Nc1ccc(S(=O)(=O)c2ccc(N)cc2)cc1 [dapsone],reduction in the severity of the neurological symptoms in comparison with the control group,[1],50%
same,recovery from the ischemic lesion in the neurological test compared to the control group,"[1]; 9.375 and 12.5 mg/kg ip, evaluated each 24 hours for 96 hours, p<0.05","recovered better from the ischemic lesion, significantly"
same,reduction of ischemic lesion volume in comparison with the control group,[2]; 9.375 mg/kg ip 30 minutes after occlusion,93%
same,reduction of ischemic lesion volume in comparison with the control group,"[2]; 12.5 mg/kg ip 30 minutes after occlusion, 12.5 mg/kg",91% and 90%
same,efficacy to reduce the volume of brain damage produced by the stroke,[2]; dose of 9.325 mg/kg,93%
same,side effects,[3]; for the dose used,No side effects
same,effective dose,"[3]; model not stated, printed after the patient result",0.013 mmol/kg
same,clinical improvement (in words),"[3]; patients, 200 mg orally",significant clinical improvement
same,"clinical improvement of neurological symptoms (NIH scale), in average","[3]; patients, single 200 mg oral dose within first twelve hours after stroke",67%
same,stability of the suspension,[4],"stable in refrigeration at 4° C., for up to one month"
